SMILES strings stand for the structures. Some results are limits rather than exact numbers.

For orientation: EC50 means the concentration that produces a half-maximal response.

The test has as its system K-Ras G12C (NCI-H358 cells). The test is described as follows: Potency assay: pERK in NCI-H358 cells. Type of test: cell-based, human. The settings on record: Homo sapiens; NCI-H358 cells, 4 hours; read-out: pERK EC50 (H358 KRAS G12C). As to the method:
The purpose of this assay is to measure the ability of test compounds to inhibit K-Ras in cells. […] This procedure measures a decrease in cellular pERK in response to test compounds. The procedure described below in NCI-H358 cells is applicable to K-Ras G12C.
Note: This protocol may be executed substituting other cell lines to characterize inhibitors of other RAS variants, including, for example, AsPC-1 (K-Ras G12D), Capan-1 (K-Ras G12V), or NCI-H1355 (K-Ras G13C).
NCI-H358 cells were grown and maintained using media and procedures recommended by the ATCC. On the day prior to compound addition, cells were plated in 384-well cell culture plates (40 μl/well) and grown overnight in a 37° C., 5% CO2 incubator. Test compounds were prepared in 10, 3-fold dilutions in DMSO, with a high concentration of 10 mM. On the day of assay, 40 nL of test compound was added to each well of cell culture plate using an Echo550 liquid handler (LabCyte®). Concentrations of test compound were tested in duplicate. After compound addition, cells were incubated 4 hours at 37° C., 5% CO2. Following incubation, culture medium was removed and cells were washed once with phosphate buffered saline.
In some experiments, cellular pERK level was determined using the AlphaLISA SureFire Ultra p-ERK1/2 Assay Kit (PerkinElmer). Cells were lysed in 25 μL lysis buffer, with shaking at 600 RPM at room temperature. […] After a 2-hour incubation in the dark, 5 μL donor mix was added, plate was sealed, and incubated 2 hours at room temperature. Signal was read on an Envision plate reader (PerkinElmer) using standard AlphaLISA settings. Analysis of raw data was carried out in Excel (Microsoft) and Prism (GraphPad). Signal was plotted vs. the decadal logarithm of compound concentration, and IC50 was determined by fitting a 4-parameter sigmoidal concentration response model.
In other experiments, cellular pERK was determined by In-Cell Western. […] Fixed cells were washed 4 times for 5 minutes with TBS containing 0.1% Triton X-100 (TBST) and then blocked with 100 μL Odyssey blocking buffer (LI-COR) for 60 minutes at room temperature. Primary antibody (PERK, CST-4370, Cell Signaling Technology) was diluted 1:200 in blocking buffer, and 50 μL was added to each well and incubated overnight at 4° C. Cells were washed 4 times for 5 minutes with TBST. Secondary antibody (IR-800CW rabbit, LI-COR, diluted 1:800) and DNA stain DRAQ5 (LI-COR, diluted 1:2000) were added and incubated 1-2 hours at room temperature. Cells were washed 4 times for 5 minutes with TBST. Plates were scanned on a Li—COR Odyssey CLx Imager. Analysis of raw data was carried out in Excel (Microsoft) and Prism (GraphPad). Signal was plotted vs. the decadal logarithm of compound concentration, and IC50 was determined by fitting a 4-parameter sigmoidal concentration response model.
Regarding `CCn1c(-c2cc(N3CCN(C)CC3)cnc2[C@H](C)OC)c2c3cc(ccc31)-c1csc(n1)C[C@H](NC(=O)[C@H](C(C)C)N(C)C(=O)N1CCOCC1)C(=O)N1CCC[C@H](N1)C(=O)OCC(C)(C)C2` [Compound A555], the EC50 is under 5 µM.
The result for `CCn1c(-c2cnccc2COC)c2c3cc(ccc31)-c1cc(O)cc(c1)C[C@H](NC(=O)[C@H](C(C)C)N1CCCCC1=O)C(=O)N1CCC[C@H](N1)C(=O)OCC(C)(C)C2` [Compound A44] reads under 5 µM; that for `CCn1c(-c2cccnc2[C@H](C)OC)c2c3cc(ccc31)-c1csc(n1)C[C@H](NC(=O)[C@H](C(C)C)N(C)C(=O)N1C[C@H](OC)[C@@H](N)C1)C(=O)N1CCC[C@H](N1)C(=O)OCC(C)(C)C2` [Compound A580], under 5 µM; that for `CCN(C(=O)N(C)[C@H](C(=O)N[C@H]1Cc2nc(cs2)-c2ccc3c(c2)c(c(-c2cccnc2[C@H](C)OC)n3CC)CC(C)(C)COC(=O)[C@@H]2CCCN(N2)C1=O)C(C)C)C1CC1` [Compound A352], under 5 µM.
In the case of `CCn1c(-c2cnccc2COC)c2c3cc(ccc31)-c1cc(O)cc(c1)C[C@H](NC(=O)[C@H](C(C)C)N(C)C(=O)CO)C(=O)N1CCC[C@H](N1)C(=O)OCC(C)(C)C2` [Compound A43, (2S)—N-[(8S,14S)-22-ethyl-4-hydroxy-21-[4-(methoxymethyl)pyridin-3-yl]-18,18-dimethyl-9,15-dioxo-16-oxa-10,22,28-triazapentacyclo [18.5.2.1^2,6.1^10,14.0^23,27]nonacosa-1 (26), 2,4,6 (29),20,23 (27),24-heptaen-8-yl]-2-(2-hydroxy-N-methylacetamido)-3-methylbutanamide], the EC50 was under 5 µM.
The result for `CCn1c(-c2cnccc2COC)c2c3cc(ccc31)-c1cc(O)cc(c1)C[C@H](NC(=O)C1CCCC1C(F)F)C(=O)N1CCC[C@H](N1)C(=O)OCC(C)(C)C2` (some centres unmarked) [Compound A261] reads under 5 µM; that for `CCN(CC)C1CN(C(=O)N(C)[C@H](C(=O)N[C@H]2Cc3nc(cs3)-c3ccc4c(c3)c(c(-c3cccnc3[C@H](C)OC)n4CC)CC(C)(C)COC(=O)[C@@H]3CCCN(N3)C2=O)C(C)C)C1` [Compound A319], under 5 µM; that for `CCn1c(-c2cccnc2[C@H](C)OC)c2c3cc(ccc31)-c1cc(O)cc(c1)C[C@H](NC(=O)[C@H](C(C)C)N(C)C(=O)C1(C#N)CC1)C(=O)N1CCC[C@H](N1)C(=O)OCC(C)(C)C2` [Compound A159], under 5 µM.
The result for `CCn1c(-c2cccnc2[C@H](C)OC)c2c3cc(ccc31)-c1csc(n1)C[C@H](NC(=O)[C@H](C(C)C)N(C)C(=O)N1CCN(C(=O)C3(N(C)C)CC3)CC1)C(=O)N1CCC[C@H](N1)C(=O)OCC(C)(C)C2` [Compound A443] reads under 5 µM; that for `CCn1c(-c2cccnc2[C@H](C)OC)c2c3cc(ccc31)-c1csc(n1)C[C@H](NC(=O)[C@H](C(C)C)N(C)C(=O)N1CC(NC)C1)C(=O)N1CCC[C@H](N1)C(=O)OCC(C)(C)C2` [Compound A337], under 5 µM; that for `CCn1c(-c2cccnc2[C@H](C)OC)c2c3cc(ccc31)-c1csc(n1)C[C@H](NC(=O)[C@H](C(C)C)N(C)C(=O)N1CC[C@@H]1C(=O)NC)C(=O)N1CCC[C@H](N1)C(=O)OCC(C)(C)C2` [Compound A281], under 5 µM.
As for `CCn1c(-c2cccnc2[C@H](C)OC)c2c3cc(ccc31)-c1csc(n1)C[C@H](NC(=O)[C@H](C(C)C)N(C)C(=O)N1CCOC3(CN(C)C3)C1)C(=O)N1CCC[C@H](N1)C(=O)OCC(C)(C)C2` [Compound A294], the figure is under 5 µM.
For the compound `CCn1c(-c2cccnc2[C@H](C)OC)c2c3cc(ccc31)-c1cccc(c1)C[C@H](NC(=O)[C@H](C(C)C)N(C)C(=O)[C@H]1CCN(C(C)=O)C1)C(=O)N1CCC[C@H](N1)C(=O)OCC(C)(C)C2` [Compound A60], the EC50 is under 5 µM.
As for `CCn1c(-c2cccnc2[C@H](C)OC)c2c3cc(ccc31)-c1csc(n1)C[C@H](NC(=O)[C@H]1CCO1)C(=O)N1CCC[C@H](N1)C(=O)OCC(C)(C)C2` [Compound A360], the figure is under 5 µM.

The values above are taken from patent US20250195521A1 (Revolution Medicines, Inc., priority 2020, published 2025).
